{"source": "patent US20240383872A1", "about": "“NOVEL PYRIDINE AND PYRAZINE COMPOUNDS AS INHIBITORS OF CANNABINOID RECEPTOR 2” (HOFFMANN-LA ROCHE INC., priority 2018, published 2024)", "target": "human CB2 receptor (CNR2) (Homo sapiens (Human), UniProt P34972)", "sequence (P34972 whole entry)": "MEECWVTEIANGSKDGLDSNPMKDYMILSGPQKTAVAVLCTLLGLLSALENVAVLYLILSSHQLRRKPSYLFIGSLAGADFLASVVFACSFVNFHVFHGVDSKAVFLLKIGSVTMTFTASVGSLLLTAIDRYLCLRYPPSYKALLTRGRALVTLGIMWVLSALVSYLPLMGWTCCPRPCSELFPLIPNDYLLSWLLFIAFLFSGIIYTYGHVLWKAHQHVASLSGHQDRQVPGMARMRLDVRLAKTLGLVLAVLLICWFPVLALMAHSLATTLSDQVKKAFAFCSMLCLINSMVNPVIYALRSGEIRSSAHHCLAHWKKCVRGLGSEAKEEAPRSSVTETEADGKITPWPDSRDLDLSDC", "assay": "Radioligand binding assay, human CB2", "settings": "HEK cell membranes expressing human CNR2, [3H]-CP-55,940 radioligand", "method": "The affinity of the compounds of the invention for cannabinoid CB1 receptors was determined using recommended amounts of membrane preparations (PerkinElmer) of human embryonic kidney (HEK) cells expressing the human CNRI or CNR2 receptors in conjunction with 1.5 or 2.6 nM [3H]-CP-55,940 (Perkin Elmer) as radioligand, respectively. Binding was performed in binding buffer (50 mM Tris, 5 mM MgCl2, 2.5 mM EDTA, and 0.5% (wt/vol) fatty acid free BSA, pH 7.4 for CB1 receptor and 50 mM Tris, 5 mM MgCl2, 2.5 mM EGTA, and 0.1% (wt/vol) fatty acid free BSA, pH 7.4 for CB2 receptor) in a total volume of 0.2 ml for 1 h at 30° C. shaking. The reaction was terminated by rapid filtration through microfiltration plates coated with 0.5% polyethylenimine (UniFilter GF/B filter plate; Packard). Bound radioactivity was analyzed for Ki using nonlinear regression analysis (Activity Base, ID Business Solution, Limited), with the Kd values for [3H]CP55,940 determined from saturation experiments. The compounds of formula (I) show an excellent affinity for the CB2 receptor.\nThe compounds according to formula (I) have an activity in the above assay (Ki) between 0.5 nM and 10 μM. Particular compounds of formula (I) have an activity in the above assay (Ki) between 0.5 nM and 3 μM. Other particular compounds of formula (I) have an activity in the above assay (Ki) between 0.5 nM and 100 nM."}
{"smiles": "CCC(CC)(NC(=O)c1ccc(N2CC(F)(F)C2)c(OCC2CC2)n1)C(=O)OCCF", "note": "[Example 5, 2-Fluoroethyl 2-{[6-(cyclopropylmethoxy)-5-(3,3-difluoroazetidin-1-yl)pyridine-2-carbonyl]amino}-2-ethylbutanoate]", "values": [{"measurement": "Ki", "result": 7, "unit": "nM"}]}
{"smiles": "CCC(CC)(COCCF)NC(=O)c1ccc(N2CC(OC)C2)c(OCC2CC2)n1", "note": "[Example 35, 6-(Cyclopropylmethoxy)-N-{3-[(2-fluoroethoxy)methyl]pentan-3-yl}-5-(3-methoxyazetidin-1-yl) pyridine-2-carboxamide]", "values": [{"measurement": "Ki", "result": 62, "unit": "nM"}]}
{"smiles": "COC1CN(c2ccc(C(=O)N[C@@H](C)COCCF)nc2OCC2CC2)C1", "note": "[Example 32, 6-(Cyclopropylmethoxy)-N-[(2S)-1-(2-fluoroethoxy)propan-2-yl]-5-(3-methoxyazetidin-1-yl)pyridine-2-carboxamide]", "values": [{"measurement": "Ki", "result": 3120, "unit": "nM"}]}
{"smiles": "CCC(CC)(NC(=O)c1ccc(N2CC(OC)C2)c(OCC2CC2)n1)C(=O)OCCF", "note": "[Example 2, 2-Fluoroethyl 2-{[6-(cyclopropylmethoxy)-5-(3-methoxyazetidin-1-yl)pyridine-2-carbonyl]amino}-2-ethylbutanoate]", "values": [{"measurement": "Ki", "result": 2, "unit": "nM"}]}
{"smiles": "CC(C)C[C@@H](COCF)NC(=O)c1ccc(N2CCCC2)c(OCC2CC2)n1", "note": "[Example 16, 6-(Cyclopropylmethoxy)-N-[(2S)-1-(fluoromethoxy)-4-methylpentan-2-yl]-5-(pyrrolidin-1-yl)pyridine-2-carboxamide]", "values": [{"measurement": "Ki", "result": 8, "unit": "nM"}]}
{"smiles": "C[C@@H](COCCF)NC(=O)c1ccc(N2CCCC2)c(OCC2CC2)n1", "note": "[Example 23, 6-(Cyclopropylmethoxy)-N-[(2S)-1-(2-fluoroethoxy)propan-2-yl]-5-(pyrrolidin-1-yl)pyridine-2-carboxamide]", "values": [{"measurement": "Ki", "result": 490, "unit": "nM"}]}
